Consider 32 compounds from patent US8071612B2, “6-alkenyl and 6-phenylalkyl substituted 2-quinolinones and 2-quinoxalinones as poly(ADP-ribose) polymerase inhibitors” (Janssen Pharmaceutica, NV, priority 2004, dated 2011).

For experiment [1], the target named is T1, PARP-1 enzyme (Homo sapiens, UniProt P09874).
T1 construct: made in house
Put plainly: In vitro filtration assay for PARP-1 inhibitory activity. To be noted: nicked DNA activated PARP-1, [32P]-NAD, histones; read-out: In vitro filtration assay pIC50 (converted). It is filed as biochemical. As for the experimental part:
Compounds of the present invention were tested in an in vitro filtration assay assessing PARP-1 activity (triggered in the presence of nicked DNA) by means of its histone poly (ADP-ribosyl)ation activity using [^32P]-NAD as ADP-ribosyl donor. The radioactive ribosylated histones were precipitated by trichloroacetic acid (TCA) in 96-well filterplates and the incorporated [^32P] measured using a scintillation counter
A mixture of histones (stock solution: 5 mg/ml in H2O), NAD (stock solution: 100 mM in H2O), and [^32P]-NAD^+ in incubation buffer (50 mM Tris/HCl, pH 8; 0.2 mM DTT; 4 mM MgCl2) was made. A mixture of the PARP-1 enzyme (5-10 μg/ml) and nicked DNA was also made. The nicked DNA was prepared as described in the in vitro SPA for PARP-1 inhibitory activity. Seventy-five μl of the PARP-1 enzyme/DNA mixture together with 1 μl of compound in DMSO and 25 μl of histones-NAD^+/[^32P]-NAD^+ mixture was added per well of a 96-well filterplate (0.45 μm, supplier Millipore). The final concentrations in the incubation mixture were 2 μg/ml for the histones, 0.1 mM for the NAD^+, […] (0.5 μC) for the [^32P]-NAD^+ and 2 μg/ml for the nicked DNA. Plates were incubated for 15 min. at room temperature and the reaction was terminated by the addition of 10 μl ice cold 100% TCA followed by the addition of 10 μl ice-cold BSA solution (1% in H2O). The protein fraction was allowed to precipitate for 10 min. at 4° C. and plates were vacuum filtered. The plates were subsequently washed with, for each well, 1 ml of 10% ice cold TCA, 1 ml of 5% ice cold TCA and 1 ml of 5% TCA at room temperature. Finally 100 μl of scintillation solution (Microscint 40, Packard) was added to each well and the plates were transferred to a TopCountNXT™ (supplier: Packard) for scintillation counting and values were expressed as counts per minute (cpm). For each experiment, controls (containing PARP-1 enzyme and DMSO without compound), a blank incubation (containing DMSO but no PARP-1 enzyme or compound) and samples (containing PARP-1 enzyme and compound dissolved in DMSO) were run in parallel. All compounds tested were dissolved and eventually further diluted in DMSO. In first instance, compounds were tested at a concentration of 10^−5M. […] In each test, the blank value was subtracted from both the control and the sample values. The control sample represented maximal PARP-1 enzyme activity. For each sample, the amount of cpm was expressed as a percentage of the mean cpm value of the controls. When appropriate, IC50-values (concentration of the drug, needed to reduce the PARP-1 enzyme activity to 50% of the control) were computed using linear interpolation between the experimental points just above and below the 50% level. Herein the effects of test compounds are expressed as pIC50 (the negative log value of the IC50-value). As a reference compound, 4-amino-1,8-naphthalimide was included to validate the filtration assay.

Experiment [2] has as its target T1, PARP-1 enzyme. Description: In vitro Scintillation Proximity Assay (SPA) for PARP-1 inhibitory activity. It is filed as biochemical. To be noted: nicked DNA activated PARP-1, [3H]-NAD+, biotinylated histones; read-out: In vitro SPA pIC50 (converted). As for the experimental part: Compounds of the present invention were tested in an in vitro assay based on SPA technology (proprietary to Amersham Pharmacia Biotech).
In principle, the assay relies upon the well established SPA technology for the detection of poly(ADP-ribosyl)ation of biotinylated target proteins, i.e histones. This ribosylation is induced using nicked DNA activated PARP-1 enzyme and [^3H]-nicotinamide adenine dinucleotide ([^3H]-NAD^+) as ADP-ribosyl donor.
As inducer of PARP-1 enzyme activity, nicked DNA was prepared. For this, 25 mg of DNA (supplier: Sigma) was dissolved in 25 ml DNAse buffer (10 mM Tris-HCl, pH 7.4; 0.5 mg/ml Bovine Serum Albumine (BSA); 5 mM MgCl2.6H2O and 1 mM KCl) to which 50 μl DNAse solution (1 mg/ml in 0.15 M NaCl) was added. After an incubation of 90 min. at 37° C., the reaction was terminated by adding 1.45 g NaCl, followed by a further incubation at 58° C. for 15 min. The reaction mixture was cooled on ice and dialysed at 4° C. for respectively 1.5 and 2 hours against 1.5 l of 0.2 M KCl, and twice against 1.5 l of 0.01 M KCl for 1.5 and 2 h respectively. The mixture was aliquoted and stored at −20° C. Histones (1 mg/ml, type II-A, supplier: Sigma) were biotinylated using the biotinylation kit of Amersham and stored aliquoted at −20° C. A stock solution of 100 mg/ml SPA poly(vinyl toluene) (PVT) beads (supplier: Amersham) was made in PBS. A stock solution of [^3]H-NAD^+ was made by adding 120 μl of [^3H]-NAD^+ (0.1 mCi/ml, supplier: NEN) to 6 ml incubation buffer (50 mM Tris/HCl, pH 8; 0.2 mM DTT; 4 mM MgCl2). A solution of 4 mM NAD^+ (supplier: Roche) was made in incubation buffer (from a 100 mM stock solution in water stored at −20° C.). The PARP-1 enzyme was produced using art known techniques, i.e. cloning and expression of the protein starting from human liver cDNA. Information concerning the used protein sequence of the PARP-1 enzyme including literature references can be found in the Swiss-Prot database under primary accession number P09874. Biotinylated histones and PVT-SPA beads were mixed and pre-incubated for 30 min. at room temperature. PARP-1 enzyme (concentration was lot dependent) was mixed with the nicked DNA and the mixture was pre-incubated for 30 min. at 4° C. Equal parts of this histones/PVT-SPA beads solution and PARP-1 enzyme/DNA solution were mixed and 75 μl of this mixture together with 1 μl of compound in DMSO and 25 μl of [^3H]-NAD^+ was added per well into a 96-well microtiterplate. The final concentrations in the incubation mixture were 2 μg/ml for the biotinylated histones, 2 mg/ml for the PVT-SPA beads, 2 μg/ml for the nicked DNA and between 5-10 μg/ml for the PARP-1 enzyme. After incubation of the mixture for 15 min. at room temperature, the reaction was terminated by adding 100 μl of 4 mM NAD^+ in incubation buffer (final concentration 2 mM) and plates were mixed.
The beads were allowed to sediment for at least 15 min. and plates transferred to a TopCountNXT™ (Packard) for scintillation counting, values were expressed as counts per minute (cpm). For each experiment, controls (containing PARP-1 enzyme and DMSO without compound), a blank incubation (containing DMSO but no PARP-1 enzyme or compound) and samples (containing PARP-1 enzyme and compound dissolved in DMSO) were run in parallel. All compounds tested were dissolved and eventually further diluted in DMSO. In first instance, compounds were tested at a concentration of 10^−5 M or 10^−6M. […] In each test, the blank value was subtracted from both the control and the sample values. The control sample represented maximal PARP-1 enzyme activity. For each sample, the amount of cpm was expressed as a percentage of the mean cpm value of the controls. When appropriate, IC50-values (concentration of the drug, needed to reduce the PARP-1 enzyme activity to 50% of the control) were computed using linear interpolation between the experimental points just above and below the 50% level. […]
For orientation: In a scintillation proximity assay essentially only radioactivity close to the scintillant gives light.

T1 sequence (P09874 whole entry): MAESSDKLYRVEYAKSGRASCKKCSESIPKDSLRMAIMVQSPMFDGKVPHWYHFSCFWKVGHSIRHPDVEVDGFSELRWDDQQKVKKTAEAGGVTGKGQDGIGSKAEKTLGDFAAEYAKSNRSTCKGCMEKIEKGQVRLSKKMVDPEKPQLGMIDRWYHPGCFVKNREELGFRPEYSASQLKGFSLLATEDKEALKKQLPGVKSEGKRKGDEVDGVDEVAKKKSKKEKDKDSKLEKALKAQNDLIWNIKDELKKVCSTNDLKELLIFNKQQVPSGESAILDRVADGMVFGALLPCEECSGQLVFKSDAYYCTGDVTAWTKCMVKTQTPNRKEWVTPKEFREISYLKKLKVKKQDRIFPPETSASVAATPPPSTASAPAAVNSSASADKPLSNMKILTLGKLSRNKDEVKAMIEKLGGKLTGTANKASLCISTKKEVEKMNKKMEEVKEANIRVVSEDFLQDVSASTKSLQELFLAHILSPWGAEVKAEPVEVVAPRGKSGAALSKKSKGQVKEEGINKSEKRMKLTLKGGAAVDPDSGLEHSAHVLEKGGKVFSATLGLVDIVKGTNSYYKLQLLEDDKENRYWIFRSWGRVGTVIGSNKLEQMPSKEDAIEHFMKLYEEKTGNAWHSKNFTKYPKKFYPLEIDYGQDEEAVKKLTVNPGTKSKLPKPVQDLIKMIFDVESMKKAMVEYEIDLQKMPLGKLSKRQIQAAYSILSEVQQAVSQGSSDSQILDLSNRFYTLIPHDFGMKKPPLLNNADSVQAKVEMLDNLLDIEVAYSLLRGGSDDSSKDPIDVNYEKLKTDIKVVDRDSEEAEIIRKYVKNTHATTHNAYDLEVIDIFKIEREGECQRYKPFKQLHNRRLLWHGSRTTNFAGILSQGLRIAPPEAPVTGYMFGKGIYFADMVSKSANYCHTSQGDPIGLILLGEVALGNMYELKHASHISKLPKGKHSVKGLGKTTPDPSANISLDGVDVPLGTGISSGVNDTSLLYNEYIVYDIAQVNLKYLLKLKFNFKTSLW

`Cc1cc2cc(C(NC(=O)NCCCN3CCCCC3)c3ccccc3)ccc2[nH]c1=O` (stereo not shown) [Compound 7]: the results for the IC50 at PARP-1 enzyme [1] and on PARP-1 enzyme [2] were 7330 nM and 1430 nM, respectively.

As for `Cc1cc2cc(C(c3ccccc3)c3cncn3C)ccc2[nH]c1=O` (stereo not shown) [Compound 10], the IC50 at PARP-1 enzyme [1] was 2390 nM; on PARP-1 enzyme [2] it was 711 nM.

As for `CCc1cc2cc(C(c3ccccc3)N3CCC(NCCOC)CC3)ccc2[nH]c1=O` (stereo not shown) [Compound 13], the IC50 at PARP-1 enzyme [1] was 2110 nM; on PARP-1 enzyme [2], 220 nM.

As to `Cc1cc2cc(C(NCCCc3cccs3)c3ccccc3)ccc2[nH]c1=O` (stereo not shown) [Compound 23], the IC50 at PARP-1 enzyme [1] was 3270 nM; at PARP-1 enzyme [2] it was 1410 nM.

With `Cc1cc2cc(C(NCCCn3cccc3)c3ccccc3)ccc2[nH]c1=O` (stereo not shown) [Compound 24], the values for the IC50 at PARP-1 enzyme [1] and at PARP-1 enzyme [2] were 7590 nM and 2720 nM, respectively.

Turning to `CC(=O)NCCNC(c1ccccc1)c1ccc2[nH]c(=O)c(C)cc2c1` (stereo not shown) [Compound 25], the results for the IC50 on PARP-1 enzyme [1] and on PARP-1 enzyme [2] were 3900 nM and 498 nM, respectively.

As for `CCc1cc2cc(C(NCCCN3CCCCC3)c3ccccc3)ccc2[nH]c1=O` (stereo not shown) [Compound 26], the IC50 on PARP-1 enzyme [1] is 918 nM; on PARP-1 enzyme [2], 119 nM.

Turning to `Cc1cc2cc(C(NCCC(=O)c3ccccc3)c3ccccc3)ccc2[nH]c1=O` (stereo not shown) [Compound 27], the IC50 at PARP-1 enzyme [1] was 2330 nM; on PARP-1 enzyme [2] it was 925 nM.

Consider `CCc1cc2cc(C(OCCN(C)C)c3ccccc3)ccc2[nH]c1=O` (stereo not shown) [Compound 28], for which the figures for the IC50 on PARP-1 enzyme [1] and at PARP-1 enzyme [2] were 773 nM and 226 nM, respectively.

For `Cc1cc2cc(C(NCCO)c3ccccc3)ccc2[nH]c1=O` (stereo not shown) [Compound 29], the figures for the IC50 on PARP-1 enzyme [1] and at PARP-1 enzyme [2] were 4780 nM and 796 nM, respectively.

As for `CCc1nc2cc(C(c3ccccc3)n3cncn3)ccc2[nH]c1=O` (stereo not shown) [Compound 30], the values for the IC50 at PARP-1 enzyme [1] and on PARP-1 enzyme [2] were 1800 nM and 362 nM, respectively.

Regarding `CCc1cc2cc(C(c3cccc(C(F)(F)F)c3)N3CCC(=O)CC3)ccc2[nH]c1=O` (stereo not shown) [Compound 37], the IC50 on PARP-1 enzyme [1] was 1170 nM; on PARP-1 enzyme [2] it was 302 nM.

`CCc1cc2cc(C(c3ccc(Cl)cc3)N3CCC(=O)CC3)ccc2[nH]c1=O` (stereo not shown) [Compound 38]: the IC50 on PARP-1 enzyme [1] is 2650 nM; at PARP-1 enzyme [2], 316 nM.

In the case of `CCc1cc2cc(C(c3ccccc3)N3CCN(C)CC3)ccc2[nH]c1=O` (stereo not shown) [Compound 39], the figures for the IC50 on PARP-1 enzyme [1] and at PARP-1 enzyme [2] were 10000 nM and 596 nM, respectively.

Turning to `CCc1cc2cc(C(c3cccc(C(F)(F)F)c3)n3cnnc3)ccc2[nH]c1=O` (stereo not shown) [Compound 72], the IC50 on PARP-1 enzyme [1] was 2100 nM; at PARP-1 enzyme [2], 211 nM.

Turning to `CCc1cc2cc(C(c3cccc(Cl)c3)N3CCC(=O)CC3)ccc2[nH]c1=O` (stereo not shown) [Compound 77], the results for the IC50 at PARP-1 enzyme [1] and on PARP-1 enzyme [2] were 1740 nM and 252 nM, respectively.

As for `CCc1cc2cc(C(c3cccc(C(F)(F)F)c3)n3cncn3)ccc2[nH]c1=O` (stereo not shown) [Compound 78], the figures for the IC50 on PARP-1 enzyme [1] and at PARP-1 enzyme [2] were 2370 nM and 197 nM, respectively.

For `CCc1cc2cc(C(c3cccc(C(F)(F)F)c3)N3CCN(C)CC3)ccc2[nH]c1=O` (stereo not shown) [Compound 80], the IC50 is 3910 nM at PARP-1 enzyme [1] and 692 nM on PARP-1 enzyme [2].

Take `CCc1cc2cc(C(c3ccccc3)N3CCC(=O)CC3)ccc2[nH]c1=O` (stereo not shown) [Compound 81]: the IC50 on PARP-1 enzyme [1] was 3970 nM; at PARP-1 enzyme [2] it was 305 nM.

On to `Cc1cc2cc(C(C)(C#N)c3ccccc3)ccc2[nH]c1=O` (stereo not shown) [Compound 85], for which the results for the IC50 on PARP-1 enzyme [1] and on PARP-1 enzyme [2] were 1190 nM and 189 nM, respectively.

`CCc1nc2cc(CCC(c3ccc(Cl)cc3)n3ccnc3)ccc2[nH]c1=O` (stereo not shown) [Compound 118]: at PARP-1 enzyme [2], the IC50 is 869 nM.

As to `CCc1nc2cc(CC(c3ccccc3)n3ccnc3)ccc2[nH]c1=O` (stereo not shown) [Compound 119], on PARP-1 enzyme [2], the IC50 was 198 nM.

For `CCc1nc2ccc(CC(c3ccc(Cl)cc3)N3CCC(C(N)=O)CC3)cc2[nH]c1=O` (stereo not shown) [Compound 120], the IC50 on PARP-1 enzyme [2] was 553 nM.

As to `CCc1nc2cc(CC(c3ccc(Cl)cc3)N3CCC(O)(c4ccccc4)CC3)ccc2[nH]c1=O` (stereo not shown) [Compound 121], the IC50 on PARP-1 enzyme [2] is 830 nM.

For `CCc1cc2cc(/C(=C/CN3CCCCC3)c3ccc4c(c3)OCCO4)ccc2[nH]c1=O` [Compound 129], the IC50 on PARP-1 enzyme [2] is 57.1 nM.

For the compound `CCc1cc2cc(/C(=C\CN3CCCCC3)c3ccc4c(c3)OCCO4)ccc2[nH]c1=O` [Compound 130], the IC50 at PARP-1 enzyme [2] was 188 nM.

For `CCc1cc2cc(/C(=C\CN(C)C)c3ccc4c(c3)OCCO4)ccc2[nH]c1=O` [Compound 136], the IC50 at PARP-1 enzyme [2] was 137 nM.

Regarding `CCc1cc2cc(/C(=C\CN(C)C)c3ccc(Cl)cc3)ccc2[nH]c1=O` [Compound 137], on PARP-1 enzyme [2], the IC50 is 428 nM.

On to `CCc1cc2cc(/C(=C/CN(C)C)c3ccc4c(c3)OCCO4)ccc2[nH]c1=O` [Compound 138], for which the IC50 at PARP-1 enzyme [2] was 63 nM.

As for `CCc1cc2cc(C(=C3CCN(CCCn4c(=O)[nH]c5ccccc54)CC3)c3ccc4c(c3)OCCO4)ccc2[nH]c1=O` [Compound 141], on PARP-1 enzyme [2], the IC50 is 121 nM.

Take `CCc1cc2cc(C(=C3CCN(C/C=C/c4ccccc4)CC3)c3ccc4c(c3)OCCO4)ccc2[nH]c1=O` [Compound 142]: the IC50 on PARP-1 enzyme [2] was 322 nM.

`CCc1cc2cc(C(=C3CCN(CC(O)COc4ccc(F)cc4)CC3)c3ccc4c(c3)OCCO4)ccc2[nH]c1=O` (stereo not shown) [Compound 143]: on PARP-1 enzyme [2], the IC50 was 157 nM.
